Test results reported in patent US20050260568A1, “Hepatitis C virus assays” (priority 2004, published 2005).

Legend:
HCV replicon = HCV replicon FRET assay (NS3 protease activity as indirect measure of HCV RNA replication); type: cell-based, Hepatitis C virus; settings: FIG. 7A IFN-α control titration 1000 to 1 units
Excerpt: To perform the HCV FRET screening assay, 96-well cell culture plates were used. The FRET peptide (Anaspec, Inc.) (Taliani et al., Anal. Biochem. 240:60-67 (1996), expressly incorporated by reference in its entirety) contains a fluorescence donor, EDANS, near one end of the peptide and an acceptor, DABCYL, near the other end. The fluorescence of the peptide is quenched by intramolecular resonance energy transfer (RET) between the donor and the acceptor, but as the NS3 protease cleaves the peptide the products are released from RET quenching and the fluorescence of the donor becomes apparent. […]
Subsequent to addition of the test compounds described above (FRET Assay Preparation), at various times the plate was removed and Alamar Blue solution (Trek Diagnostics, #00-100) was added per well as a measure of cellular toxicity. After reading in a Cytoflour 4000 instrument (PE Biosystems), plates were rinsed with PBS and then used for FRET assay by the addition of 30 ul of the FRET peptide assay reagent described above (FRET Assay Preparation) per well. The plate was then placed into the Cytoflour 4000 instrument which had been set to 340 excite/490 emission, automatic mode for 20 cycles and the plate read in a kinetic mode. Typically, the signal to noise using an endpoint analysis after the reads was at least three-fold. […]

Huh-7 replicon cells = assay: Alamar Blue cytotoxicity assay; type: cell-based; settings: lower concentrations of IFN-α (100, 10, 1 units)
Method: Subsequent to addition of the test compounds described above (FRET Assay Preparation), at various times the plate was removed and Alamar Blue solution (Trek Diagnostics, #00-100) was added per well as a measure of cellular toxicity. After reading in a Cytoflour 4000 instrument (PE Biosystems), plates were rinsed with PBS and then used for FRET assay by the addition of 30 ul of the FRET peptide assay reagent described above (FRET Assay Preparation) per well. The plate was then placed into the Cytoflour 4000 instrument which had been set to 340 excite/490 emission, automatic mode for 20 cycles and the plate read in a kinetic mode. Typically, the signal to noise using an endpoint analysis after the reads was at least three-fold.
Compound analysis was determined by quantification of the relative HCV replicon inhibition and the relative cytotoxicity values. To calculate cytotoxicity values, the average Alamar Blue fluorescence signals from the control wells in row 11 (FIG. 4) were set as 100% non-toxic. The individual signals in each of the compound test wells were then divided by the average control signal and multiplied by 100% to determine […]. To calculate the HCV replicon inhibition values, an average background value FRET signal was obtained from the two wells containing the highest amount of interferon at the end of the assay period. […]

What does the source list for Interferon alpha [IFN-α]?
EC50 in control samples of random compound plate (FRET) (HCV replicon): close to or slightly lower than the lowest concentration of IFN-α used; cytotoxicity (Alamar Blue staining change) (Huh-7 replicon cells): no apparent Alamar Blue staining change
